# Laboratory results: ChEMBL document CHEMBL1201862, “PubChem BioAssay data set” (2004)
#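 Following 48 hours of exposure in 96-well plates, responses at five concentrations were used to interpolate endpoints linearly. GI50: concentration for 50% inhibition of growth.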 Active and inactive are the calls of the source. Rule as the data show it: active = GI50 up to about 1.1 µM and inactive = higher.
# Legend:
# Experiment in all cases: inhibition of tumour cell growth, NCI panel, 48 h
# 786-0 = tested on: 786-0
# A498 = tested on: A498
# A549 = tested on: A549
# ACHN = tested on: ACHN
# BT-549 = tested on: BT-549
# CAKI-1 = tested on: CAKI-1
# CCRF-CEM = tested on: CCRF-CEM
# COLO 205 = tested on: COLO 205
# EKVX = tested on: EKVX
# HCT-116 = tested on: HCT-116
# HCT-15 = tested on: HCT-15
# HL-60 = tested on: HL-60
# HOP-62 = tested on: HOP-62
# HOP-92 = tested on: HOP-92
# HT-29 = tested on: HT-29
# Hs-578T = tested on: Hs-578T
# IGROV-1 = tested on: IGROV-1
# K562 = tested on: K562
# KM12 = tested on: KM12
# LOX IMVI = tested on: LOX IMVI
# M14 = tested on: M14
# MCF7 = tested on: MCF7
# MDA-MB-231 = tested on: MDA-MB-231
# MDA-MB-435 = tested on: MDA-MB-435
# MDA-N = tested on: MDA-N
# MOLT-4 = tested on: MOLT-4
# Malme-3M = tested on: Malme-3M
# NCI-H226 = tested on: NCI-H226
# NCI-H23 = tested on: NCI-H23
# NCI-H460 = tested on: NCI-H460
# NCI-H522 = tested on: NCI-H522
# NCI/ADR-RES = tested on: NCI/ADR-RES
# OVCAR-3 = tested on: OVCAR-3
# OVCAR-4 = tested on: OVCAR-4
# OVCAR-5 = tested on: OVCAR-5
# OVCAR-8 = tested on: OVCAR-8
# PC-3 = tested on: PC-3
# RPMI-8226 = tested on: RPMI-8226
# RXF 393 = tested on: RXF 393
# SF-268 = tested on: SF-268
# SF-295 = tested on: SF-295
# SF-539 = tested on: SF-539
# SK-MEL-2 = tested on: SK-MEL-2
# SK-MEL-5 = tested on: SK-MEL-5
# SK-OV-3 = tested on: SK-OV-3
# SNB-19 = tested on: SNB-19
# SR = tested on: SR
# SW-620 = tested on: SW-620
# T47D = tested on: T47D
# TK-10 = tested on: TK-10
# U-251 = tested on: U-251
# UACC-257 = tested on: UACC-257
# UACC-62 = tested on: UACC-62
# UO-31 = tested on: UO-31
# DU-145 = tested on: DU-145
# HCC 2998 = tested on: HCC 2998
# SK-MEL-28 = tested on: SK-MEL-28
# SN12C = tested on: SN12C
# SNB-75 = tested on: SNB-75
compound,measurement,setting,value
O=C1CC(c2ccccc2)n2c(nc3ccccc32)N1 (stereo not drawn),GI50,786-0,74.8 µM (inactive)
same,GI50,A498,45.5 µM (inactive)
same,GI50,A549,> 100 µM (inactive)
same,GI50,ACHN,> 100 µM (inactive)
same,GI50,BT-549,29.2 µM (inactive)
same,GI50,CAKI-1,35.3 µM (inactive)
same,GI50,CCRF-CEM,> 10 µM (inactive)
same,GI50,COLO 205,> 100 µM (inactive)
same,GI50,EKVX,73.5 µM (inactive)
same,GI50,HCT-116,> 100 µM (inactive)
same,GI50,HCT-15,46.8 µM
same,GI50,HL-60,16.8 µM (inactive)
same,GI50,HOP-62,> 100 µM (inactive)
same,GI50,HOP-92,17.9 µM (inactive)
same,GI50,HT-29,> 100 µM (inactive)
same,GI50,Hs-578T,76.9 µM (inactive)
same,GI50,IGROV-1,47.4 µM (inactive)
same,GI50,K562,23.7 µM (inactive)
same,GI50,KM12,> 100 µM (inactive)
same,GI50,LOX IMVI,39.4 µM (inactive)
same,GI50,M14,> 100 µM (inactive)
same,GI50,MCF7,67.1 µM (inactive)
same,GI50,MDA-MB-231,> 100 µM (inactive)
same,GI50,MDA-MB-435,37.8 µM (inactive)
same,GI50,MDA-N,73.5 µM (inactive)
same,GI50,MOLT-4,65.8 µM (inactive)
same,GI50,Malme-3M,38.1 µM (inactive)
same,GI50,NCI-H226,> 100 µM (inactive)
same,GI50,NCI-H23,64.1 µM (inactive)
same,GI50,NCI-H460,> 100 µM (inactive)
same,GI50,NCI-H522,29.9 µM (inactive)
same,GI50,NCI/ADR-RES,> 100 µM (inactive)
same,GI50,OVCAR-3,54.2 µM (inactive)
same,GI50,OVCAR-4,> 100 µM (inactive)
same,GI50,OVCAR-5,> 100 µM (inactive)
same,GI50,OVCAR-8,> 100 µM (inactive)
same,GI50,PC-3,> 100 µM (inactive)
same,GI50,RPMI-8226,27 µM (inactive)
same,GI50,RXF 393,21 µM (inactive)
same,GI50,SF-268,> 100 µM (inactive)
same,GI50,SF-295,> 100 µM (inactive)
same,GI50,SF-539,> 100 µM (inactive)
same,GI50,SK-MEL-2,18.9 µM (inactive)
same,GI50,SK-MEL-5,20.5 µM (inactive)
same,GI50,SK-OV-3,> 100 µM (inactive)
same,GI50,SNB-19,> 100 µM (inactive)
same,GI50,SR,36.2 µM (inactive)
same,GI50,SW-620,51.9 µM (inactive)
same,GI50,T47D,25.4 µM (inactive)
same,GI50,TK-10,> 100 µM (inactive)
same,GI50,U-251,71.8 µM (inactive)
same,GI50,UACC-257,41.9 µM (inactive)
same,GI50,UACC-62,72.9 µM (inactive)
same,GI50,UO-31,> 100 µM (inactive)
CNC(=S)N/N=C(\C)c1cc(OC)c(OC)cc1O,GI50,786-0,> 100 µM (inactive)
same,GI50,A498,> 100 µM (inactive)
same,GI50,A549,> 100 µM (inactive)
same,GI50,ACHN,> 100 µM (inactive)
same,GI50,BT-549,> 100 µM (inactive)
same,GI50,CAKI-1,> 100 µM (inactive)
same,GI50,CCRF-CEM,> 100 µM (inactive)
same,GI50,COLO 205,> 100 µM (inactive)
same,GI50,DU-145,> 100 µM (inactive)
same,GI50,EKVX,> 100 µM (inactive)
same,GI50,HCC 2998,> 100 µM (inactive)
same,GI50,HCT-116,> 100 µM (inactive)
same,GI50,HCT-15,> 100 µM
same,GI50,HL-60,0.0556 µM (active)
same,GI50,HOP-62,> 100 µM (inactive)
same,GI50,HT-29,> 100 µM (inactive)
same,GI50,IGROV-1,> 100 µM (inactive)
same,GI50,K562,7.29 µM (inactive)
same,GI50,KM12,> 100 µM (inactive)
same,GI50,M14,> 100 µM (inactive)
same,GI50,MCF7,> 100 µM (inactive)
same,GI50,MDA-MB-231,> 100 µM (inactive)
same,GI50,MDA-MB-435,> 100 µM (inactive)
same,GI50,MDA-N,> 100 µM (inactive)
same,GI50,MOLT-4,> 100 µM (inactive)
same,GI50,Malme-3M,> 100 µM (inactive)
same,GI50,NCI-H460,> 100 µM (inactive)
same,GI50,NCI/ADR-RES,> 100 µM (inactive)
same,GI50,OVCAR-3,> 100 µM (inactive)
same,GI50,OVCAR-5,> 100 µM (inactive)
same,GI50,OVCAR-8,> 100 µM (inactive)
same,GI50,PC-3,> 100 µM (inactive)
same,GI50,RPMI-8226,> 100 µM (inactive)
same,GI50,RXF 393,> 100 µM (inactive)
same,GI50,SF-268,> 100 µM (inactive)
same,GI50,SF-539,> 100 µM (inactive)
same,GI50,SK-MEL-28,> 100 µM (inactive)
same,GI50,SK-MEL-2,> 100 µM (inactive)
same,GI50,SK-MEL-5,> 100 µM (inactive)
same,GI50,SK-OV-3,> 100 µM (inactive)
same,GI50,SN12C,> 100 µM (inactive)
same,GI50,SNB-19,> 100 µM (inactive)
same,GI50,SNB-75,> 100 µM (inactive)
same,GI50,SR,> 100 µM (inactive)
same,GI50,SW-620,> 100 µM (inactive)
same,GI50,T47D,> 100 µM (inactive)
same,GI50,TK-10,> 100 µM (inactive)
same,GI50,U-251,> 100 µM (inactive)
same,GI50,UACC-257,> 100 µM (inactive)
same,GI50,UACC-62,> 100 µM (inactive)
same,GI50,UO-31,> 100 µM (inactive)
O=S(=O)(O)c1cc(/N=N/c2c(O)ccc3ccccc23)ccc1/C=C/c1ccc(/N=N/c2c(O)ccc3ccccc23)cc1S(=O)(=O)O,GI50,786-0,> 100 µM (inactive)
same,GI50,A549,> 100 µM (inactive)
same,GI50,ACHN,> 100 µM (inactive)
same,GI50,BT-549,> 100 µM (inactive)
same,GI50,CAKI-1,> 100 µM (inactive)
same,GI50,COLO 205,> 100 µM (inactive)
same,GI50,EKVX,> 100 µM (inactive)
same,GI50,HCT-116,> 100 µM (inactive)
same,GI50,HCT-15,> 100 µM
same,GI50,HOP-62,> 100 µM (inactive)
same,GI50,HOP-92,> 100 µM (inactive)
same,GI50,HT-29,> 100 µM (inactive)
same,GI50,Hs-578T,> 100 µM (inactive)
same,GI50,IGROV-1,70.3 µM (inactive)
same,GI50,K562,> 100 µM (inactive)
same,GI50,KM12,> 100 µM (inactive)
same,GI50,M14,99.5 µM (inactive)
same,GI50,MDA-MB-231,40.3 µM (inactive)
same,GI50,MDA-MB-435,> 100 µM (inactive)
same,GI50,MDA-N,> 100 µM (inactive)
same,GI50,Malme-3M,26.9 µM (inactive)
same,GI50,NCI-H226,> 100 µM (inactive)
same,GI50,NCI-H23,> 100 µM (inactive)
same,GI50,NCI-H522,> 100 µM (inactive)
same,GI50,NCI/ADR-RES,> 100 µM (inactive)
same,GI50,OVCAR-3,> 100 µM (inactive)
same,GI50,OVCAR-4,> 100 µM (inactive)
same,GI50,OVCAR-5,> 100 µM (inactive)
same,GI50,OVCAR-8,> 100 µM (inactive)
same,GI50,PC-3,> 100 µM (inactive)
same,GI50,RPMI-8226,> 100 µM (inactive)
same,GI50,RXF 393,> 100 µM (inactive)
same,GI50,SF-268,> 100 µM (inactive)
same,GI50,SF-295,> 100 µM (inactive)
same,GI50,SK-MEL-28,> 100 µM (inactive)
same,GI50,SK-MEL-2,> 100 µM (inactive)
same,GI50,SK-MEL-5,> 100 µM (inactive)
same,GI50,SK-OV-3,> 100 µM (inactive)
same,GI50,SN12C,> 100 µM (inactive)
same,GI50,SNB-19,> 100 µM (inactive)
same,GI50,SNB-75,> 100 µM (inactive)
same,GI50,SW-620,> 100 µM (inactive)
same,GI50,T47D,> 100 µM (inactive)
same,GI50,TK-10,> 100 µM (inactive)
same,GI50,U-251,> 100 µM (inactive)
same,GI50,UACC-257,> 100 µM (inactive)
same,GI50,UACC-62,> 100 µM (inactive)
same,GI50,UO-31,> 100 µM (inactive)
